Key:
Assay in all cases: relative viability (nuclei count vs DMSO), 5 days (fraction); higher = more cells survive
Dasatinib + Luminespib = compound: Cc1nc(Nc2ncc(C(=O)Nc3c(C)cccc3Cl)s2)cc(N2CCN(CCO)CC2)n1 [Dasatinib] + CCNC(=O)c1noc(-c2cc(C(C)C)c(O)cc2O)c1-c1ccc(CN2CCOCC2)cc1 [Luminespib] (partner 0.01 µM)
How it was run: (§1)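 Lung cancer cell lines in 1536-well plates got either a single drug or a fixed anchor-drug dose together with five library-drug doses (not always all listed) in √10 steps, by pin tool, on the day after seeding. Nuclei were counted after 5 days, and relative viability is the treated-to-vehicle ratio of nuclei counts. Values are medians of duplicate plates.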

Dasatinib + Decitabine = compound: Cc1nc(Nc2ncc(C(=O)Nc3c(C)cccc3Cl)s2)cc(N2CCN(CCO)CC2)n1 [Dasatinib] + Nc1ncn([C@H]2C[C@H](O)[C@@H](CO)O2)c(=O)n1 [Decitabine] (partner 2 µM)
How it was run: as §1

XMD13-2 + Dasatinib = compound: C1CC1C(=O)NC2=NNC3=C2C=CC(=C3)C4=CC(=CC=C4)C(=O)NC5CC5 [XMD13-2] + Cc1nc(Nc2ncc(C(=O)Nc3c(C)cccc3Cl)s2)cc(N2CCN(CCO)CC2)n1 [Dasatinib] (partner 0.075 µM)
How it was run: as §1

ALW-II-49-7 + Alpelisib = compound: Cc1ccc(C(=O)Nc2cccc(C(F)(F)F)c2)cc1Nc1cncc(C(N)=O)c1 [ALW-II-49-7] + Cc1nc(NC(=O)N2CCC[C@H]2C(N)=O)sc1-c1ccnc(C(C)(C)C(F)(F)F)c1 [Alpelisib] (partner 2 µM)
How it was run: as §1

Cell Line	relative viability (Dasatinib + Luminespib; first compound 0.005 µM)	relative viability (Dasatinib + Luminespib; first compound 0.01581 µM)	relative viability (Dasatinib + Luminespib; first compound 0.05 µM)	relative viability (Dasatinib + Luminespib; first compound 0.1581 µM)	relative viability (Dasatinib + Luminespib; first compound 0.5 µM)	relative viability (Dasatinib + Decitabine; first compound 0.005 µM)	relative viability (Dasatinib + Decitabine; first compound 0.01581 µM)	relative viability (Dasatinib + Decitabine; first compound 0.05 µM)	relative viability (Dasatinib + Decitabine; first compound 0.1581 µM)	relative viability (Dasatinib + Decitabine; first compound 0.5 µM)	relative viability (XMD13-2 + Dasatinib; first compound 0.05 µM)	relative viability (XMD13-2 + Dasatinib; first compound 0.1581 µM)	relative viability (XMD13-2 + Dasatinib; first compound 0.5 µM)	relative viability (XMD13-2 + Dasatinib; first compound 1.581 µM)	relative viability (XMD13-2 + Dasatinib; first compound 5 µM)	relative viability (ALW-II-49-7 + Alpelisib; first compound 0.08 µM)	relative viability (ALW-II-49-7 + Alpelisib; first compound 0.253 µM)	relative viability (ALW-II-49-7 + Alpelisib; first compound 0.8 µM)	relative viability (ALW-II-49-7 + Alpelisib; first compound 2.53 µM)	relative viability (ALW-II-49-7 + Alpelisib; first compound 8 µM)
SK-MES-1	0.844	0.656	0.353	0.128	0.154	0.409	0.364	0.265	0.169	0.136	0.347	0.349	0.296	0.325	0.374	0.852	0.802	0.891	0.779	0.753
NCI-H2126	0.837	0.792	0.835	0.55	0.375	0.567	0.51	0.553	0.437	0.351	0.76	0.595	0.633	0.535	0.561	0.713	0.723	0.726	0.763	0.738
EPLC-272H	0.679	0.392	0.512	0.121	0.111	0.39	0.392	0.381	0.295	0.153	0.39	0.31	0.503	0.317	0.269	0.92	0.879	1.02	1.08	1.06
NCI-H1975	0.177	0.212	0.155	0.178	0.139	0.377	0.384	0.368	0.266	0.224	0.444	0.361	0.467	0.324	0.393	0.534	0.62	0.641	0.662	0.485
NCI-H3122	0.0996	0.0732	0.124	0.0691	0.0615	0.503	0.476	0.536	0.428	0.33	1.01	0.863	0.843	0.723	0.77	0.824	0.651	0.865	0.873	0.981
COR-L 105	0.67	0.588	0.637	0.571	0.22	0.599	0.604	0.478	0.445	0.297	0.463	0.325	0.343	0.365	0.323	1.14	1.03	0.894	0.93	0.943
BEN	0.439	0.547	0.266	0.2	0.269	0.667	0.598	0.567	0.442	0.387	0.321	0.327	0.343	0.246	0.331	0.993	0.93	0.936	–	1.17
NCI-H1915	0.818	0.601	0.673	0.208	0.149	0.291	0.249	0.231	0.224	0.144	0.362	0.342	0.322	0.302	0.305	1.1	1.13	1.08	0.978	0.731
NCI-H650	0.771	0.777	0.852	0.401	0.213	0.325	0.281	0.318	0.341	0.302	0.463	0.452	0.524	0.39	0.546	1.14	1.08	1.13	0.353	0.669
NCI-H2009	1.05	1.02	1.1	0.605	0.168	0.403	0.384	0.314	0.216	0.122	0.366	0.277	0.432	0.288	0.278	1.12	1.09	1.12	0.957	0.825
COR-L23	0.698	0.531	0.7	0.461	0.299	0.428	0.42	0.386	0.298	0.307	0.585	0.544	0.477	0.42	0.497	0.756	0.536	0.741	0.898	0.667
NCI-H460	0.0311	0.031	0.0288	0.02	0.0207	0.568	0.444	0.352	0.29	0.286	0.636	0.466	0.525	0.578	0.626	0.513	0.542	0.323	0.453	0.395
LCLC-103H	0.83	0.88	0.733	0.52	0.275	0.69	0.7	0.737	0.625	0.446	0.688	0.46	0.445	0.515	0.527	0.933	0.968	0.993	1.14	0.972
HCC-827	0.672	0.409	0.335	0.127	0.123	0.35	0.271	0.309	0.224	0.159	0.321	0.21	0.317	0.253	0.337	0.949	1.08	0.945	0.94	0.897
NCI-H322M	0.779	0.491	0.38	0.288	0.232	0.755	0.589	0.518	0.45	0.253	0.237	0.239	0.24	0.263	0.283	0.724	0.739	0.957	0.759	0.8
NCI-H1666	0.992	1.05	1.06	0.88	0.459	0.725	0.691	0.73	0.656	0.521	0.789	0.852	0.861	0.813	0.851	1.05	1.07	0.853	0.951	0.868

Cell Line	relative viability (Dasatinib + Luminespib; first compound 0.005 µM)	relative viability (Dasatinib + Luminespib; first compound 0.01581 µM)	relative viability (Dasatinib + Luminespib; first compound 0.05 µM)	relative viability (Dasatinib + Luminespib; first compound 0.1581 µM)	relative viability (Dasatinib + Luminespib; first compound 0.5 µM)	relative viability (Dasatinib + Decitabine; first compound 0.005 µM)	relative viability (Dasatinib + Decitabine; first compound 0.01581 µM)	relative viability (Dasatinib + Decitabine; first compound 0.05 µM)	relative viability (Dasatinib + Decitabine; first compound 0.1581 µM)	relative viability (Dasatinib + Decitabine; first compound 0.5 µM)	relative viability (XMD13-2 + Dasatinib; first compound 0.05 µM)	relative viability (XMD13-2 + Dasatinib; first compound 0.1581 µM)	relative viability (XMD13-2 + Dasatinib; first compound 0.5 µM)	relative viability (XMD13-2 + Dasatinib; first compound 1.581 µM)	relative viability (XMD13-2 + Dasatinib; first compound 5 µM)	relative viability (ALW-II-49-7 + Alpelisib; first compound 0.08 µM)	relative viability (ALW-II-49-7 + Alpelisib; first compound 0.253 µM)	relative viability (ALW-II-49-7 + Alpelisib; first compound 0.8 µM)	relative viability (ALW-II-49-7 + Alpelisib; first compound 2.53 µM)	relative viability (ALW-II-49-7 + Alpelisib; first compound 8 µM)
NCI-H1793	0.164	0.14	0.148	0.128	0.104	0.504	0.427	0.295	0.328	0.323	0.457	–	0.41	0.4	0.429	0.717	0.673	0.752	0.716	0.884
NCI-H1437	1.11	1.12	1.16	1.08	0.665	0.599	0.576	0.642	0.499	0.49	0.409	0.442	0.397	0.352	0.556	0.949	1.01	–	0.901	0.959
NCI-H358	0.215	0.169	0.253	0.262	0.136	0.211	0.173	0.169	0.127	0.146	0.201	0.162	0.142	0.174	0.171	0.718	0.802	0.925	0.965	0.902
NCI-H1792	0.467	0.306	0.244	0.249	0.2	0.544	0.51	0.469	0.342	0.178	0.966	1.03	0.798	0.971	0.829	0.512	0.459	0.586	0.504	0.473
NCI-H1355	0.766	0.561	0.569	0.458	0.435	0.355	0.319	0.354	0.343	0.272	0.847	0.839	0.79	0.695	0.61	0.696	0.867	0.832	0.679	0.645
SK-LU-1	0.162	0.15	0.151	0.104	0.118	0.609	0.449	0.437	0.282	0.24	0.195	0.185	0.199	0.164	0.199	0.966	1.01	1.11	0.674	0.558
NCI-H2170	0.497	0.482	0.597	0.315	0.273	0.439	0.422	0.392	0.344	0.225	0.791	0.518	0.601	0.55	0.541	0.723	0.762	0.751	0.867	0.793
NCI-H2347	0.404	0.359	0.266	0.23	0.276	0.562	0.538	0.459	0.322	0.265	0.638	0.292	0.284	0.298	0.304	1.08	0.98	0.986	0.869	0.873
A-427	0.742	0.704	0.739	0.673	0.486	0.616	0.513	0.543	0.491	0.493	0.767	0.792	0.705	0.683	0.536	1.25	1.06	1.13	1.21	1.12
PC-14	0.237	0.113	0.152	0.158	0.105	0.301	0.258	0.215	0.186	0.0693	0.279	0.296	0.335	0.242	0.317	0.833	0.541	0.838	0.911	0.828
NCI-H2087	0.211	0.133	0.152	0.148	0.149	0.301	0.336	0.259	0.145	0.113	0.997	0.826	0.938	0.87	0.796	1.26	1.1	1.09	0.973	0.996
HOP-62	0.853	0.858	0.92	0.648	0.485	0.218	0.227	0.261	0.23	0.191	0.699	0.689	0.794	0.605	0.6	1.05	1.13	1.14	0.499	0.955
EKVX	0.797	0.665	0.808	0.637	0.207	0.307	0.291	0.304	0.187	0.146	0.591	0.445	0.548	0.594	0.497	0.929	0.78	0.868	0.685	0.802
EMC-BAC-2	0.978	0.93	0.942	0.558	0.44	0.982	0.946	0.824	0.758	0.712	0.32	0.323	0.202	0.302	0.25	0.843	0.703	0.758	0.715	0.645
HARA	0.774	0.552	0.413	0.207	0.133	0.578	0.47	0.549	0.305	0.221	0.353	0.196	0.279	0.295	0.298	0.904	0.883	0.844	0.834	0.987
LU99A	0.229	–	0.247	0.143	0.166	0.827	0.819	0.833	0.655	0.46	0.572	0.646	0.649	0.503	0.456	0.491	0.527	0.481	0.482	0.532

From the supplement of paper PMC10307832
